Data on 1 molecule can be found in publication PMC6037779, “Repurposing drugs to target the malaria parasite unfolding protein response” (Scientific Reports, 2018).

One experiment addresses T1, PfGRP78-NBD mut (Y39F) (Plasmodium falciparum, UniProt Q05866, Y39F).
T1 construct: His-tag (pET28-MHL, TEV site) (N, cleaved yes); made in house; host or cells: E. coli BL21(DE3)
Put plainly: SPR (Biacore) binding to PfGRP78-NBD Y39F mutant. To be noted: ± standard error, 25 °C. As for the experimental part: (§1) To quantify the binding affinities of PfGRP78-NBD for the selected compounds, dissociation constants (Kd) were determined by surface plasmon resonance (SPR). […] Purified PfGRP78-FL, PfGRP78-NBD wild-type and mutant, and human GRP78-NBD were immobilized on a CM5 sensorchip using NHS/EDC coupling following the manufacturer protocol to a level of <10,000 RUs, a reference surfaces without immobilized proteins served as a control for nonspecific binding and refractive index changes. Seven different concentrations of the ligands between 0.4 nM to 1 mM, were injected in triplicate over the sensor chip at 30 µL/min in random order. The running buffer was 10 mM HEPES, pH 7.4, 150 mM NaCl, 0.005% P20, 1% DMSO and 2 mM MgCl2. Buffer only injections were used as blanks. The Biacore responses recorded during the 30 seconds of the injection were used to estimate the association constant (kon) and the 300 seconds after the injection were used to estimate the dissociation constant (koff). All dissociation and kinetic constants were estimated using double subtracted sensorgrams[40] using BiaEvaluation Software (GE Healthcare). All the reported parasite dissociation constants (Kd) were estimated with affinity analysis, and all the reported human Kds were calculated from kinetic constants.
In general terms: Surface plasmon resonance follows binding to a sensor surface in real time, without labels.

The target in another experiment is T2, huGRP78-NBD (Homo sapiens, UniProt P11021).
T2 construct: PfGRP78-NBD wild type and mutant, and human GRP78-NBD were buffered in 25 mM hepes pH 7.5
T2 sequence (P11021 26-407 limits assumed): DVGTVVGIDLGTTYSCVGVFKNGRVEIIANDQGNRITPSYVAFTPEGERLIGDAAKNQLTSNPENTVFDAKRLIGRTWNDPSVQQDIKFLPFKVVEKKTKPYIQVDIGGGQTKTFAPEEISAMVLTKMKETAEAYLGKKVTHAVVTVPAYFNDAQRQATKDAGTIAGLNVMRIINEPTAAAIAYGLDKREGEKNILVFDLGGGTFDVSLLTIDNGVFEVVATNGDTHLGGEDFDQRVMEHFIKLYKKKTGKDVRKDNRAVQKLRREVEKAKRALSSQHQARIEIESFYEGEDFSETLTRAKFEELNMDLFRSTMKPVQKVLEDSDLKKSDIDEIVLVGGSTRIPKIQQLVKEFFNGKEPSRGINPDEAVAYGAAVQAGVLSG
Put plainly: SPR (Biacore) binding to human GRP78-NBD. To be noted: ± standard error; calculated from kinetic constants; 25 °C; read-out: affinity constant (Kd) determined by SPR, huGRP78-NBD. As for the experimental part: as §1, with “Seven different concentrations of the ligands between 0.4 nM to 1 mM, were injected in triplicate over the sensor chip at 30 µL/min in random order.” left out

Experiment [1] relates to Plasmodium falciparum 3D7. The experiment in a line: In vitro growth inhibition assay (SYBR Green I), strain 3D7. Conditions: Plasmodium falciparum, 3D7; chloroquine-sensitive strain; 72 hours; average of three ± SD; read-out: EC50, growth inhibition, P. falciparum 3D7. The class given is cell-based. As for the experimental part:
A major goal of our study was to evaluate the drug target potential of P. falciparum GRP78, thus we evaluated the effect of the chaperone inhibition on the malaria parasite. Our approach took advantage of several GRP78 inhibitors (Fig. 3a) previously characterized against human cancer cell lines, which were commercially available[20],[24]–[27]. These compounds were tested against two different parasite strains with opposite sensitivity towards the antimalarial drug chloroquine, 3D7 (sensitive) and W2 (resistant). […] A synchronized P. falciparum culture, with over 80% ring forms, was used in the growth inhibition assay. Each strain was assayed at 0.5% parasitaemia and 1.5% hematocrit. A 190 µL aliquot of parasite culture was dispensed per well to microplates that were pre-dispensed with the compounds at various dilutions. […] Dilutions of GRP78 inhibitors and DHA were prepared in water with a final concentration of DMSO below 0.05% (v/v). […] After incubation, the plates were subject to a freeze-thaw cycle (−80 °C) and the parasite growth was quantified by the SYBR Green I method as previously described. Briefly, 100 µl of homogenized parasite culture was transferred into 96-well black plates. 100 µl of SYBR Green lysis buffer (2x SYBR Green I, 100 mM Tris-HCl pH 7.5, 10 mM EDTA, 0.016% Saponin and 1.6% Triton X-100) were added to each well. The plates were incubated at room temperature in darkness for 1 hour.
Growth inhibition experiments were conducted at least three times per compound. […] The statistical analysis was performed with the software Prism 7 (GraphPad Software, San Diego, CA).

The target of a further experiment is T3, PfGRP78 (Plasmodium falciparum, UniProt Q05866).
T3 construct: endogenous in cells; host or cells: P. falciparum W2 culture in human red blood cells
T3 sequence (Q05866 25-652): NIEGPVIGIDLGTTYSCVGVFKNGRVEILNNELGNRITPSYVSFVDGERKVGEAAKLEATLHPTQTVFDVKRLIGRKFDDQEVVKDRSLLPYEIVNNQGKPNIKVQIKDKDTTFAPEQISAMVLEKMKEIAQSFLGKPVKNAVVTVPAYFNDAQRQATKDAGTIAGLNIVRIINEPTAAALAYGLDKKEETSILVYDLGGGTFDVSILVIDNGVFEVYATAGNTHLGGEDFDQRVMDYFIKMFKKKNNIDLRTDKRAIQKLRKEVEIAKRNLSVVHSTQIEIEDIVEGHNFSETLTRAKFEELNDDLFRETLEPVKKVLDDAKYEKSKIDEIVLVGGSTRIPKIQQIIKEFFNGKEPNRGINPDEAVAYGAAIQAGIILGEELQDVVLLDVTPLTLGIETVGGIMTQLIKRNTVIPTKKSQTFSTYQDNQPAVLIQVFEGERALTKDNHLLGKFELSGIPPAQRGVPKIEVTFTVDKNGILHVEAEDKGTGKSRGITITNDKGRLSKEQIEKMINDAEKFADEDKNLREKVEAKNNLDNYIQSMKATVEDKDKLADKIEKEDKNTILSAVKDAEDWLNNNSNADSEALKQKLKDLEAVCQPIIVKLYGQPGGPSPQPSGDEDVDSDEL
The experiment in a line: PfGRP78 protein levels by immuno-blot after exposure of P. falciparum W2 culture. The class given is cell-based. As for the experimental part:
Culture aliquots were taken at several time points and the PfGRP78 levels of were evaluated by immuno-blots (Fig. 4). […] Thus, providing further support to the notion that Apoptozole antiplasmodial activity is mediated by its effect on PfGRP78.
A 55 ml suspension of ring-stage P. falciparum W2 parasites at 1.5% parasitaemia and 1.5% of hematocrit were split into 11 culture dishes of 5 ml each. One culture plate was served as a starting point (0 h) and of the remaining ten culture plates, half were exposed to 45 µM Apoptozole and half to DMSO 0.09% for 6 h. After 6 h the Apoptozole or DMSO were removed by washing the parasite culture with complete media twice. Culture dishes contained control (DMSO) and Apoptozole treated parasites were incubated at 37 °C in 5% O2 and 5% CO2 atmosphere throughout the duration of the experiment. One of each control and treated group were harvest at times 1, 3, 6, 24 and 48 hours. Samples were processed by harvesting the red blood cell using centrifugation 5 min at 5000 g and washed twice with PBS 1 × 5000 g for 1 min at 4 °C. The pellet was resuspended in 1 ml of 0.02% saponin-PBS solution (Sigma, Aldrich) and centrifuged 10 min 11000 g at 4 °C. The parasite pellet was washed twice with PBS and resuspended in 100 µl PBS. A 30 µl sample was mixed with 30 µl of Laemlii lysis buffer (BioRad) and 3 µl 14.1 M 2-mercaptoethanol (BioRad) and boiled for 10 min. […]

What is called Kd is the constant that tells how readily two partners part at equilibrium. In general, EC50 refers to the concentration that produces a half-maximal response.

T1 sequence (Q05866 26-404 Y39F): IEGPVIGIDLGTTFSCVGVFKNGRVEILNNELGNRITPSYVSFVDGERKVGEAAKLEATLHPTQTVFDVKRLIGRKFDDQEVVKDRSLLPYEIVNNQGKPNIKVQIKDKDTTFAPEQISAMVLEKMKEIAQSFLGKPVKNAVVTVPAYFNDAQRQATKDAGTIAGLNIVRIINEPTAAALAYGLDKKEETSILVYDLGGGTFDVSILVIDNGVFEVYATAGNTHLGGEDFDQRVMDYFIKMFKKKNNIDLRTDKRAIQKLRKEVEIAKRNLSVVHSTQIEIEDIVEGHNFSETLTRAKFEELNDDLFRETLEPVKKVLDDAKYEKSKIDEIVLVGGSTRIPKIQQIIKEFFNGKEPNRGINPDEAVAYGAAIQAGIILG

In the case of `COc1ccc(-c2nc(-c3cc(C(F)(F)F)cc(C(F)(F)F)c3)n(Cc3ccc(C(N)=O)cc3)c2-c2ccc(OC)cc2)cc1` [Apoptozole], the “affinity constant (Kd) determined by SPR, PfGRP78-NBD mut” value at PfGRP78-NBD mut (Y39F) is given as “N.B”. The Kd at huGRP78-NBD was 6.9 ± 0.33 µM. The EC50 in experiment [1] amounted to 6.8 ± 1.4 µM. Further, the “PfGRP78 levels, first 6 hours” value at PfGRP78 (45 µM (10xEC50) for 6 h) is “did not changed”. The “PfGRP78 levels, 24 and 48 h time points” value at PfGRP78 (45 µM (10xEC50) for 6 h then washed) is “clear reduction”.
